Experimental data reported in the supplement of paper PMC10307832.

How the values were obtained:
Test in all cases: relative viability (nuclei count vs DMSO), 5 days (fraction); higher = more cells survive
Zebularine + OSI-027 = compound: O=c1ncccn1[C@@H]1O[C@H](CO)[C@@H](O)[C@H]1O [Zebularine] + COc1cccc2cc(-c3nc([C@H]4CC[C@H](C(=O)O)CC4)n4ncnc(N)c34)[nH]c12 [OSI-027] (partner 0.5 µM)
Summary of the method: (§1)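 Lung cancer cell lines in 1536-well plates got either a single drug or a fixed anchor-drug dose together with five library-drug doses (not always all listed) in √10 steps, by pin tool, on the day after seeding. Nuclei were counted after 5 days, and relative viability is the treated-to-vehicle ratio of nuclei counts. Values are medians of duplicate plates.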

Zebularine + Crizotinib = compound: O=c1ncccn1[C@@H]1O[C@H](CO)[C@@H](O)[C@H]1O [Zebularine] + C[C@@H](Oc1cc(-c2cnn(C3CCNCC3)c2)cnc1N)c1c(Cl)ccc(F)c1Cl [Crizotinib] (partner 1 µM)
Summary of the method: as §1

Zebularine + Trametinib = compound: O=c1ncccn1[C@@H]1O[C@H](CO)[C@@H](O)[C@H]1O [Zebularine] + CC(=O)Nc1cccc(-n2c(=O)n(C3CC3)c(=O)c3c(Nc4ccc(I)cc4F)n(C)c(=O)c(C)c32)c1 [Trametinib] (partner 0.02 µM)
Summary of the method: as §1

BI-D1870 + Olaparib = compound: CC(C)CCN1c2nc(Nc3cc(F)c(O)c(F)c3)ncc2N(C)C(=O)C1C [BI-D1870] + O=C(c1cc(Cc2n[nH]c(=O)c3ccccc23)ccc1F)N1CCN(C(=O)C2CC2)CC1 [Olaparib] (partner 8 µM)
Summary of the method: as §1

Cell Line | relative viability (Zebularine + OSI-027; first compound 1 µM) | relative viability (Zebularine + OSI-027; first compound 3.162 µM) | relative viability (Zebularine + OSI-027; first compound 10 µM) | relative viability (Zebularine + OSI-027; first compound 31.62 µM) | relative viability (Zebularine + OSI-027; first compound 100 µM) | relative viability (Zebularine + Crizotinib; first compound 1 µM) | relative viability (Zebularine + Crizotinib; first compound 3.162 µM) | relative viability (Zebularine + Crizotinib; first compound 10 µM) | relative viability (Zebularine + Crizotinib; first compound 31.62 µM) | relative viability (Zebularine + Crizotinib; first compound 100 µM) | relative viability (Zebularine + Trametinib; first compound 1 µM) | relative viability (Zebularine + Trametinib; first compound 3.162 µM) | relative viability (Zebularine + Trametinib; first compound 10 µM) | relative viability (Zebularine + Trametinib; first compound 31.62 µM) | relative viability (Zebularine + Trametinib; first compound 100 µM) | relative viability (BI-D1870 + Olaparib; first compound 0.04 µM) | relative viability (BI-D1870 + Olaparib; first compound 0.1265 µM) | relative viability (BI-D1870 + Olaparib; first compound 0.4 µM) | relative viability (BI-D1870 + Olaparib; first compound 1.265 µM) | relative viability (BI-D1870 + Olaparib; first compound 4 µM)
NCI-H2009 | 0.687 | 0.607 | 0.508 | 0.515 | 0.366 | 1.07 | 0.962 | 0.817 | 0.681 | 0.311 | 0.294 | 0.276 | 0.274 | 0.243 | 0.197 | 0.831 | 0.826 | 0.602 | 0.619 | 0.583
NCI-H1299 | – | – | – | – | – | 0.963 | 0.921 | 0.788 | 0.893 | 0.566 | – | – | – | – | – | 1.04 | 1 | 0.996 | 0.892 | 0.545
ABC-1 | 0.522 | 0.413 | 0.401 | 0.367 | 0.443 | 1.04 | 1.01 | 0.812 | 0.779 | 0.565 | – | – | – | – | – | 0.751 | 0.782 | 1 | 0.613 | 0.666
NCI-H1793 | 0.26 | 0.215 | – | 0.288 | 0.221 | – | – | – | – | – | 0.466 | 0.477 | 0.257 | 0.269 | 0.21 | 1.05 | 0.708 | 0.799 | 1.02 | 0.898
SW 900 | 0.842 | 0.621 | 0.306 | 0.543 | 0.427 | – | – | – | – | – | 0.759 | 0.789 | – | 0.899 | 1.15 | 0.826 | 0.765 | 0.711 | 0.733 | 0.964
NCI-H1563 | 0.81 | 0.776 | 0.572 | 0.89 | 0.76 | 0.877 | 0.873 | 0.849 | 0.935 | 0.828 | – | – | – | – | – | – | – | – | – | –
A549 | – | – | – | – | – | 0.847 | 0.846 | 0.478 | 0.228 | 0.164 | – | – | – | – | – | 0.382 | 0.382 | 0.268 | 0.379 | 0.399
NCI-H2342 | 0.709 | 0.621 | 0.589 | 0.626 | 0.627 | – | – | – | – | – | 0.891 | 0.768 | 0.751 | 0.756 | 0.712 | 0.524 | 0.459 | 0.471 | 0.415 | 0.502
NCI-H1623 | 0.428 | 0.397 | 0.407 | 0.561 | 0.411 | – | – | – | – | – | – | – | – | – | – | – | – | – | – | –
NCI-H522 | 0.769 | 0.544 | 0.683 | 0.676 | 0.707 | – | – | – | – | – | 0.815 | 0.704 | 0.667 | 0.758 | 0.723 | 0.7 | 0.627 | 0.67 | 0.667 | 0.62
NCI-H1395 | 0.65 | 0.58 | 0.553 | 0.531 | 0.429 | – | – | – | – | – | 1.15 | 1.05 | 0.966 | 0.767 | 0.62 | 0.448 | 0.436 | 0.429 | 0.489 | 0.406
IA-LM | – | – | – | – | – | 1.07 | 0.718 | – | 1.1 | 0.609 | – | – | – | – | – | 0.812 | 0.739 | 0.913 | 0.851 | 0.506
EBC-1 | – | – | – | – | – | 0.191 | 0.18 | – | 0.187 | 0.189 | – | – | – | – | – | 0.738 | 0.581 | 0.574 | 0.337 | 0.183
